In PubChem BioAssay (NCI):
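Compound exposure: 48 hours, 5 concentrations, 96-well plates. Here, GI50 denotes the concentration required for 50% inhibition of growth. TGI is the concentration that stops growth completely.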

Assays:
Assay in all cases: DTP human tumour cell line panel, 48 h
UACC-257 melanoma = tested on: UACC-257 melanoma
T-47D breast = tested on: T-47D breast
DU-145 prostate = tested on: DU-145 prostate
MDA-MB-435 = tested on: MDA-MB-435
NCI-H23 lung = tested on: NCI-H23 lung
MCF7 breast = tested on: MCF7 breast
ACHN renal = tested on: ACHN renal
NCI-H460 lung = tested on: NCI-H460 lung
SK-MEL-28 melanoma = tested on: SK-MEL-28 melanoma
CAKI-1 renal = tested on: CAKI-1 renal

| Compound | GI50 (UACC-257 melanoma) [µM] | TGI (UACC-257 melanoma) [µM] | GI50 (T-47D breast) [µM] | TGI (T-47D breast) [µM] | GI50 (DU-145 prostate) [µM] | TGI (DU-145 prostate) [µM] | GI50 (MDA-MB-435) [µM] | TGI (MDA-MB-435) [µM] | GI50 (NCI-H23 lung) [µM] | TGI (NCI-H23 lung) [µM] | GI50 (MCF7 breast) [µM] | TGI (MCF7 breast) [µM] | GI50 (ACHN renal) [µM] | TGI (ACHN renal) [µM] | GI50 (NCI-H460 lung) [µM] | TGI (NCI-H460 lung) [µM] | GI50 (SK-MEL-28 melanoma) [µM] | TGI (SK-MEL-28 melanoma) [µM] | GI50 (CAKI-1 renal) [µM] | TGI (CAKI-1 renal) [µM] |
| --- | --- | --- | --- | --- | --- | --- | --- | --- | --- | --- | --- | --- | --- | --- | --- | --- | --- | --- | --- | --- |
| COc1ccc(-c2nn(-c3cccc(Cl)c3)cc2C2CC(c3ccccc3)=NN2C(C)=O)cc1 (stereo not given) | 32.1 | > 100 | 8.53 | > 100 | 5.25 | > 100 | > 100 | > 100 | 10.1 | > 100 | > 100 | > 100 | 3.48 | 20 | 4.17 | > 100 | 6.16 | > 100 | 6.54 | > 100 |
| C#Cc1cnc(=O)n(C2CC(O)C(CO)O2)c1 (stereo not given) | > 54.5 | 98.1 | > 100 | > 100 | > 100 | > 100 | > 100 | > 100 | > 100 | > 100 | > 100 | > 100 | > 100 | > 100 | > 78.5 | > 100 | > 100 | > 100 | > 62.2 | > 100 |
| CN1CCN(Cc2ccc(C(=O)Nc3cncc(C#Cc4cnc(N)c5ccccc45)c3)cc2C(F)(F)F)CC1 | 2.14 | 4.34 | 11.6 | 32.2 | 1.78 | 3.49 | 1.71 | 3.12 | 1.85 | 4.41 | 1.67 | 3.39 | 1.52 | 2.97 | 1.76 | 3.39 | 1.75 | 3.22 | 1.7 | 3.69 |
| COc1cc(C(=O)NC2c3ccccc3-c3ccccc32)c(N)cc1OCc1ccccc1 | 58.7 | > 100 | 29.5 | > 100 | 2.87 | > 100 | > 100 | > 100 | 30.6 | > 100 | 42.8 | > 100 | 23 | > 92.3 | 35.1 | > 100 | 25.2 | > 92.7 | 16.1 | 63.8 |
| N/C(CC(=O)Nc1cc(C(F)(F)F)ccc1Cl)=N\O |  | > 100 |  | > 100 |  | > 100 |  | > 100 |  | > 100 |  | > 100 |  | > 100 |  | > 100 |  | > 100 |  | > 100 |
| CC(C)(C)c1cc(O)c(O)c(C(C)(C)C)c1 | 2.42 | 7.4 | 2.36 | 5.02 | 4.6 | 15.8 | 3.3 | 14.1 | 3.64 | 14.2 | 3.45 | 12.8 | 2.15 | 4.13 | 3 | 10 | 3 | 10.7 | 2.79 | 8.63 |
| COc1ccc(-c2cc(-c3cc(Cl)ccc3Cl)nc3[nH]c(-c4cc(F)c(Cl)cc4Cl)cc(=O)c23)cc1 | 21 | > 100 | > 100 | > 100 | 31.3 | > 100 | 6.4 | > 100 | 14.7 | 55.8 | 60.9 | > 100 | 19.9 | 69 | 87.3 | > 100 | > 100 | > 100 | 34.1 | > 100 |
